Measured values taken from publication PMC9989278, “Characterization of substrates and inhibitors of the human heterodimeric transporter 4F2hc-LAT1 using purified protein and the scintillation proximity radioligand binding assay” (Frontiers in Physiology, 2023).
Each block holds one compound with its values, some of them ahead of it.

Molecular target: T1, human 4F2hc-LAT1 (Homo sapiens, UniProt Q01650)
T1 construct: Strep-tag (N); made in house; host or cells: Pichia pastoris strain KM71H
Test: Scintillation proximity radioligand binding assay (SPA), [3H]L-leucine competition on purified protein
Details: competitor 250 µM; for Binding of [3H]L-Leucine (%), residual radioligand binding / Binding of [3H]L-Leucine (%), residual radioligand binding (RRB): normalized to control without competitor; for Binding of [3H]L-Leucine (%), residual radioligand binding: mean of three experiments
Method: Purified, GDN-solubilized human 4F2hc-LAT1 was attached via the His-tag to polyvinyltolune (PVT) copper His-tag SPA beads (Perkin Elmer) and the protein-bound [^3H]L-leucine quantified using a scintillation counter (a detailed description of SPA with 4F2hc-LAT1 is given in the methodological publication by ([Kantipudi et al., 2021])). Briefly, experiments were conducted in 96-well plates and per well a reaction volume of 50 µL containing 250 µg PVT-SPA-beads, 1.75 µg 4F2hc-LAT1 protein, 2.5 μM L-leucine spiked with 0.5 µCi [^3H]L-leucine (ARC/Anawa, 100 Ci/mmol, 1 mCi/ml) plus a condition-specific substance. All components were dissolved in SPA-Buffer (100 mM BTP pH 8, 150 mM NaCl, 10% (v/v) glycerol, 0.5% (w/v) GDN). For some condition-specific substances (i.e., the thyroid hormones), 20 min sonication in a water bath at 4°C was necessary to dissolve them at 10× concentration in SPA-Buffer. Per reaction, 5 µL of a 10× stock solution of the condition-specific substance was placed in a well and diluted with 45 µL of a master mix containing the remaining components. For determining the substrate specificities (Figure 1), the twenty proteogenic L-amino acids and D-leucine were used as competitors at a final concentration of 250 µM. For determining the K D of L-leucine (Figure 2A) and K i of L-histidine (Figure 2B), homologous (L-leucine) and heterologous (L-histidine) substrate competition was applied at concentrations ranging from 0.01 to 1600 µM. […] The binding specificities of structural analogues of L-leucine (Figure 3) and L-histidine (Figure 4) were tested at a final competitor concentration of 250 µM. […] To avoid minor unspecific binding of radioactive L-leucine to the beads, the master mix was created in a specific procedure: SPA-beads were first mixed with the unlabeled L-leucine and shaken for 2 h at 4°C before adding the remaining components (protein last). For background subtraction in the bar graph experiments, a no-protein control was included using protein-free master mix (i.e., containing buffer instead of protein solution). The plate was shortly mixed by shaking and incubated at 4°C for ∼18 h before the signals were counted using a microplate scintillation counter (Trilux Microbeta, Perkin Elmer). […] Three experiments with protein from at least two different purifications were performed, each at least in triplicates.
Data were analyzed with Prism 6 (GraphPad Software). […] Each experiment was done with sample number of at least three (triplicate). Data of three independent experiments were merged by adding the normalized data to a common data set, which was used for curve fitting. For data analysis of the bar graphs, the signal of the no-protein control was subtracted from the transporter signal to obtain the net binding signal.

[1] = Figure 4, L-histidine analogues

T1 sequence (Q01650 whole entry): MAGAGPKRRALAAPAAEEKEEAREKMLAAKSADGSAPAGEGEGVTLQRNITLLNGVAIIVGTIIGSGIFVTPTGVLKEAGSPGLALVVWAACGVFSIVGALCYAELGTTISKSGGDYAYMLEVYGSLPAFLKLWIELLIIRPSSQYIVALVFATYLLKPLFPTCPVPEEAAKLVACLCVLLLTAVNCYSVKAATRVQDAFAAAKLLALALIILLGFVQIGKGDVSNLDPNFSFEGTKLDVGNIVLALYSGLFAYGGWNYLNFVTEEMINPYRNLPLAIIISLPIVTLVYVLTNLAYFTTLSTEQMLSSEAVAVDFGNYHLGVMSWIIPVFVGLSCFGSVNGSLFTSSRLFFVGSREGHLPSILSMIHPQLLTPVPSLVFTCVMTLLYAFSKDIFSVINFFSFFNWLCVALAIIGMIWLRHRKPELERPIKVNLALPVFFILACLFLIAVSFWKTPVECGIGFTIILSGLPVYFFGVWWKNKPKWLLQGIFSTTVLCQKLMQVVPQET
T1 sequence (P08195 102-630 partner): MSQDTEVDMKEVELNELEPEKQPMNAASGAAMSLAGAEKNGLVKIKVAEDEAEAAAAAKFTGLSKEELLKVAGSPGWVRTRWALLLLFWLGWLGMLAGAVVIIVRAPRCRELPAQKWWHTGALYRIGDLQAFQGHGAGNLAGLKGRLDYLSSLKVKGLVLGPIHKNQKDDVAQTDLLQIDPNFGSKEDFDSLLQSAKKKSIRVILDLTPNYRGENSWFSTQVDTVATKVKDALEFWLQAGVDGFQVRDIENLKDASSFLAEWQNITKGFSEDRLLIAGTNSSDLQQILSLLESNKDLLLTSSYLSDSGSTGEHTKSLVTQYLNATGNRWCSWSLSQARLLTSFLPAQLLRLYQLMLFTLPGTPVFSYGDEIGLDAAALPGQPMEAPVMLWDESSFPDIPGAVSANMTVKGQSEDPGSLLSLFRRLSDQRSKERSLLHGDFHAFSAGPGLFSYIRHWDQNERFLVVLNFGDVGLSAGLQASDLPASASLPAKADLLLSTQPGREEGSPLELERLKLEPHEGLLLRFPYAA

Compound: NC(=O)C[C@H](N)C(=O)O [Asn]
Binding of [3H]L-Leucine (%), residual radioligand binding (Figure 1): 35%

Compound: C[C@H](N)C(=O)O [Ala]
Binding of [3H]L-Leucine (%), residual radioligand binding (Figure 1): 36%

Compound: N[C@@H](Cc1c[nH]c2ccccc12)C(=O)O [Trp, L-tryptophan]
Binding of [3H]L-Leucine (%), residual radioligand binding (Figure 1): 21%
Binding of [3H]L-Leucine (%), residual radioligand binding (Figure 1, listed as L-tryptophan): 19-29%

Compound: CSCC[C@H](N)C(=O)O [Met]
Binding of [3H]L-Leucine (%), residual radioligand binding (Figure 1): 36%

Compound: COC(=O)[C@@H](N)Cc1c[nH]cn1 [L-Histidine Methyl Ester, L-histidine-methyl ester]
Binding of [3H]L-Leucine (%), residual radioligand binding (RRB) [1]: 102%
binding / inhibition of [3H]L-leucine binding to 4F2hc-LAT1, in words: no significant binding

Compound: N=C(N)NCCC[C@H](N)C(=O)O [Arg]
Binding of [3H]L-Leucine (%), residual radioligand binding (Figure 1): 68%

Compound: NCC(=O)O [Gly]
Binding of [3H]L-Leucine (%), residual radioligand binding (Figure 1): 44%

The remaining lines, values ahead:

Binding of [3H]L-Leucine (%), residual radioligand binding (Figure 1): 90%
Compound: N[C@@H](CCC(=O)O)C(=O)O [Glu]

Binding of [3H]L-Leucine (%), residual radioligand binding (Figure 1): 35%
Compound: N[C@@H](CS)C(=O)O [Cys]

Binding of [3H]L-Leucine (%), residual radioligand binding (RRB) (Figure 3, L-leucine analogues): 37%
Binding of [3H]L-Leucine (%), residual radioligand binding (RRB) (Figure 3, L-leucine analogues, listed as L-tert-leucine): 37–45%
Compound: CC(C)(C)[C@H](N)C(=O)O [L-tert-Leucine, L-tert-leucine]

Binding of [3H]L-Leucine (%), residual radioligand binding (RRB) (Figure 3, L-leucine analogues): 43%
Binding of [3H]L-Leucine (%), residual radioligand binding (RRB) (Figure 3, L-leucine analogues, listed as L-neopentyl glycine): 32–43%
Compound: CC(C)(C)C[C@H](N)C(=O)O [L-Neopentylglycine, L-neopentyl glycine]

Binding of [3H]L-Leucine (%), residual radioligand binding (RRB) (Figure 3, L-leucine analogues): 62%
Compound: CCCC[C@H](N)C(=O)O [L-Norleucine, L-norleucine]

Binding of [3H]L-Leucine (%), residual radioligand binding (Figure 1): 52%
inhibition of [3H]L-leucine binding (Figure 1): about 50%
Compound: CC(C)C[C@@H](N)C(=O)O [D-Leu, D-leucine]

Binding of [3H]L-Leucine (%), residual radioligand binding (Figure 1): 26%
Binding of [3H]L-Leucine (%), residual radioligand binding (Figure 1, listed as L-tyrosine): 19-29%
Compound: N[C@@H](Cc1ccc(O)cc1)C(=O)O [Tyr, L-tyrosine]

Binding of [3H]L-Leucine (%), residual radioligand binding (Figure 1): 19-29%
Binding of [3H]L-Leucine (%), residual radioligand binding (Figure 1, listed as Val): 19%
Binding of [3H]L-Leucine (%), residual radioligand binding (RRB) (Figure 3, L-leucine analogues): 27%
Compound: CC(C)[C@H](N)C(=O)O [L-Valine, L-valine]

Binding of [3H]L-Leucine (%), residual radioligand binding (RRB) [1]: 103%
binding / inhibition of [3H]L-leucine binding to 4F2hc-LAT1, in words: no significant binding
Compound: CN[C@@H](Cc1c[nH]cn1)C(=O)O [N-Methyl L-Histidine, N-methyl-L-histidine]

Binding of [3H]L-Leucine (%), residual radioligand binding (Figure 1): 29%
Binding of [3H]L-Leucine (%), residual radioligand binding (Figure 1, listed as L-phenylalanine): 19-29%
Compound: N[C@@H](Cc1ccccc1)C(=O)O [Phe, L-phenylalanine]
